Test results reported in patent publication US11311544B2, “Treatment of congenital adrenal hyperplasia” (Neurocrine Biosciences, Inc., priority 2014, dated 2022).
Read-outs that look alike come from different tables or passages of the source.

Key:
[1] = biological target: T1, CRF1 receptor (Homo sapiens, UniProt P34998); details: as reported in Fleck et al., cited from earlier work; for Ki: Ki=k−1/k1, read-out: Kinetic Ki; for Dissociation t1/2: t1/2=0.693/k−1
T1 sequence (P34998 24-415): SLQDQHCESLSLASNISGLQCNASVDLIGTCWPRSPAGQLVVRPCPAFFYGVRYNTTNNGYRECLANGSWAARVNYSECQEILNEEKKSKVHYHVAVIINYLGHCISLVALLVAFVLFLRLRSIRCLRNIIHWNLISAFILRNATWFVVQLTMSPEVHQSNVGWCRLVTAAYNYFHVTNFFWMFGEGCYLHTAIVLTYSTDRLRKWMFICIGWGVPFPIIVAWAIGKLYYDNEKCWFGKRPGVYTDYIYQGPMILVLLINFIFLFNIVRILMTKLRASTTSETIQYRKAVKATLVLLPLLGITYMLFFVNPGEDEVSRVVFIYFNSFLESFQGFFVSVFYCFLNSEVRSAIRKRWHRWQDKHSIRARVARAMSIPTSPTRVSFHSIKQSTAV

[2] = system: plasma ACTH in adrenalectomized (ADX) rats; details: Fleck et al., cited from earlier work; for effect on plasma ACTH, acute: highest dose 10 mg/kg, 1 hr post-injection, FIG. 3A-C
[3] = system: 17-OHP and ACTH levels (HPA axis hormones); experiment: Phase 1 single-dose clinical study in adult females with classical congenital adrenal hyperplasia; assay type: in vivo, human; details: adult female classical CAH patients, single bedtime doses
Description: The study was a single-blind, placebo-controlled, single center, fixed-sequence, single-dose clinical trial in adult female classical CAH patients.
The subjects' usual morning dose of concurrent steroidal treatment was delayed until after the 16-hour postdose blood samples were collected (i.e., until approximately 1400 h).
The PD endpoints for this study included the HPA axis biomarkers of interest in this patient population; namely, 17-hydroxyprogesterone (17-OHP; as the primary PD endpoint), adrenocorticotropic hormone (ACTH), androstenedione, testosterone, and serum cortisol levels. The initial analysis of PD variables was an examination of the grouped subject data for each biomarker, expressed as a mean percent change from predose levels for the two active dosing conditions relative to the placebo condition.
This responder analysis yielded a sizeable responder rate of 50% in the study (none of these subjects were responders during the initial placebo treatment period).

[4] = system: plasma ACTH in adrenalectomized (ADX) rats; experiment: Lowering of plasma ACTH in adrenalectomized rats; assay type: in vivo, rat; details: 30 mg/kg single oral dose, FIG. 2
Text: Adrenalectomy eliminates circulating corticosterone (the primary glucocorticoid) in rats and removes the negative feedback control of the HPA axis at both the hypothalamic and pituitary (corticotroph cells) levels and thus chronically elevates plasma ACTH (see, e.g., Mims et al., J. Natl. Med. Assoc. 69:145-47 (1977)). […] These findings were recapitulated with the small molecule NBI-77860 (Compound I). In adrenalectomized rats, Compound I has potent capability for lowering ACTH.
These findings were recapitulated with the small molecule NBI-77860. […] The duration of efficacy correlated with peak plasma concentrations, with a time course exceeding drug plasma exposure.
Fleck et al. also report the effects of CRF1 receptor antagonists differentiated by their dissociation half-life on plasma ACTH levels in adrenalectomized rats; namely, NBI 30775, NBI 34041 and NBI 35965. […] After a longer duration, a clear difference emerged between NBI 35965 and the other two ligands. The ACTH level returned to the vehicle level by 2 hr for NBI 35965 (FIG. 3C), whereas the response was sustained for 4-6 hr for NBI 30775 and NBI 34041 (FIGS. 3A and 3B).

[5] = system: HPA axis response (ACTH) produced by metyrapone; experiment: Pharmacodynamic effect of single oral doses on HPA axis response produced by metyrapone in humans; assay type: in vivo; details: human, metyrapone 0.04 g/kg
[6] = Table 2 rate constant used for t1/2

Compound	Ki [1] [nM]	Rate constant (association k1 or dissociation k−1) [1, 6] [min⁻¹]	Rate constant (association k1 or dissociation k−1) ([1]; association rate constant)	Dissociation t1/2 [1] [min]	also measured
CCC(CC)Oc1cc(C)nc(Oc2c(C)cc(C)cc2C)c1C [CP-316,311, 3,6-dimethyl-4-(pentan-3-yloxy)-2-(2,4,6-trimethylphenoxy) pyridine]	12	0.17 ± 0.04	13 ± 2 10^6M^−1min^−1	4.1	
COCC(COC)Nc1nc(C)nc2c(-c3ccc(Cl)cc3Cl)c(C)nn12 [DMP696]	9.5	0.095 ± 0.02	7.7 ± 2 10^6M^−1min^−1	7.3	
CCC(CC)Nc1cc(C)nc2c(-c3ccc(OC)cc3C)c(C)nn12 [DMP904]	0.38	0.0072 ± 0.002	18 ± 1 10^6M^−1min^−1		
CCCN(CC1CC1)c1nc(C)nc(Nc2c(Cl)cc(Cl)cc2Cl)c1Cl [NBI-27914]	25	0.27 ± 0.07	9.4 ± 3 10^6M^−1min^−1	2.6	
CCCN(CCC)c1cc(C)nc2c(-c3cnc(N(C)C)cc3C)c(C)nn12 [NBI-30775, 5-[7-(dipropylamino)-2,5-dimethylpyrazolo[1,5-a]pyrimidin-3-yl]-N,N,4-trimethylpyridin-2-amine]		0.0054 ± 0.0006	14 ± 2.0 10^6M^−1min^−1		effect on plasma ACTH, acute [2]: reduced ACTH acutely
CCCC(CCC)N1CCn2nc(-c3ccc(Cl)cc3Cl)c3nc(C)cc1c32 [NBI-34041, 3-(2,4-dichlorophenyl)-9-(heptan-4-yl)-6-methyl-1,2,5,9-tetraazatricyclo[6.3.1.0^4,12] dodeca-2,4(12),5,7-tetraene]	1.7	0.013 ± 0.002	8.3 ± 2.0 10^6M^−1min^−1	53	effect on plasma ACTH, acute [2]: reduced ACTH acutely
CC[C@H]1Cn2nc(-c3ccc(Cl)cc3Cl)c3nc(C)cc(c32)N1CC1CC1.CS(=O)(=O)O [NBI-35965]	2.3	0.048 ± 0.005	20 ± 2 10^6M^−1min^−1	16	time by which ACTH level returned to the vehicle level ([2]; 10 mg/kg): ≤ 2 h; effect on plasma ACTH, acute [2]: reduced ACTH acutely
CC[C@H](Nc1cc(C)nc2c(-c3ccc(OC)cc3C)c(C)nn12)c1nc(C)no1 [NBI-77860, 2,5-dimethyl-3-[2-methyl-4-(methyloxy)phenyl]-N-[(1S)-1-(3-methyl-1,2,4-oxadiazol-5-yl)propyl]pyrazolo[1,5-a]pyrimidin-7-amine]					effects on 17-OHP and ACTH, 300 mg dose compared with 600 mg dose [3]: nearly identical effects; duration of significant lowering of plasma ACTH levels [4]: up to 5 hours; ACTH AUC (30 min to 4 h) compared to placebo ([5]; single oral dose 10 mg): increase; ACTH AUC (2 h to 4 h) compared with placebo ([5]; single oral dose 10 mg): reduction was not seen; ACTH AUC (30 min to 4 h) compared to placebo ([5]; single oral dose 50 mg): non-significant reduction; ACTH AUC (2 h to 4 h) compared with placebo ([5]; single oral dose 50 mg): significant reduction; ACTH AUC (30 min to 4 h) compared to placebo ([5]; single oral dose 400 mg): significant reduction; ACTH AUC (2 h to 4 h) compared with placebo ([5]; single oral dose 400 mg): significant reduction
CCC(CC)Nc1c2c(nc3c(-c4ccc(OC)cc4Cl)c(C)nn13)CCC2 [ONO-2333Ms, 10-(2-chloro-4-methoxyphenyl)-11-methyl-N-(pentan-3-yl)-1,8,12-triazatricyclo[7.3.0.0^3,7] dodeca-2,7,9,11-tetraen-2-amine]	15	0.063 ± 0.029	4.4 ± 2.2 10^6M^−1min^−1	17	
Cc1nnc2n1-c1ccc(Cl)cc1C(c1ccccc1)=NC2 [alprazolam]					ACTH AUC (30 min to 4 h) compared to placebo ([5]; single dose alprazolam 0.75 mg): significant reduction
CCCCN(CC)c1nc(C)nc2c1c(C)c(C)n2-c1c(C)cc(C)cc1C [antalarmin, N-butyl-N-ethyl-2,5,6-trimethyl-7-(2,4,6-trimethylphenyl)pyrrolo[3,2-e]pyrimidin-4-amine]	3.9	0.013 ± 0.002	3.4 ± 0.6 10^6M^−1min^−1	53	
CC[C@@H](C)Nc1nc(C)nc2c(-c3ccc(OC)nc3C)c(C)nn12 [pexacerfont, N-[(2R)-butan-2-yl]-8-(6-methoxy-2-methylpyridin-3-yl)-2,7-dimethylpyrazolo[1,5-a][1,3,5]triazin-4-amine]		0.049 ± 0.001	2.6 ± 0.1 10^6M^−1min^−1	14	
